According to EP1746090A1, “Sustituted pyrazoline compounds, having predetermined stereochemistry, for reducing triglycerides in blood” (Laboratorios del Dr. Esteve S.A., priority 2005, dated 2007):

Tested on: male mice B6 Lep ob/ob
Test: In-vivo testing for regulation of triglycerides in blood plasma (obese mice on high fat diet)
Conditions: obese mice fed with high fat diet for 7 weeks; 30 mg/kg/day, p.o., 14 days; whole blood, test strips "Lipid panel"
Text: This effect is probed in obese mice fed with high fat diet. In the following paragraphs the method of this study is described.
The study is done using six weeks old male mice B6 Lep ob/ob, obtained from Charles River (France). Mice are divided in 3 groups: I (control), II (vehicle), III (example 0).
The animals of the group I receive the standard diet (D-12450B, Research Diets, NJ, USA).
The animals of the groups II and III are fed with a High Fat Diet (D-12492, Research Diets, NJ, USA), in both cases for 7 weeks (References 1 and 2).
The animals of the groups III are fed with a High Fat Diet (D-12492, Research Diets, NJ, USA), in both cases for 7 weeks (References 1 and 2).
At the end of the feeding period of 7 weeks, the treatment period (14 days) is started: Group II mice receive the vehicle (10 ml/kg/day, po, of the aqueous solution of acacia gum, 5% W/V). Group III is administered with 30 mg/kg/day, p.o., of the inventive compound (R)-5-(4-chlorophenyl)-1-(2,4-dichlorophenyl)-4,5-dihydro-pyrazole-3-carboxylic acid according to Example 0. […] The three groups of mice have the same diet than in the previous period.
At the end of the 14 days period of treatment, the blood levels of triglicerides of the animals are determined. […]

## (S)-5-(4-chlorophenyl)-1-(2,4-dichlorophenyl)-4,5-dihydro-pyrazole-3-carboxylic acid [example 0]
  blood levels of triglicerides: inhibitor of high blood levels of triglicerides
